Assay results reported in paper PMC9818267, “Brain Natriuretic Peptide Protects Cardiomyocytes from Apoptosis and Stimulates Their Cell Cycle Re-Entry in Mouse Infarcted Hearts” (Cells, 2022).
No end group written: not given here.

Key:
phospholamban (PLB) = experiment: Western blot pPLB/PLB in CMs isolated from BNP-injected hearts; format: in vivo, mouse; conditions: vs saline
Experimental: BNP was injected into infarcted adults, and unmanipulated neonatal and adult mice. Directly after surgery, NaCl (saline) or BNP (1.3 µg/20 g in 20 µL) was injected into the left ventricle cavity. At 24 h after MI, mice were intraperitoneal (ip) injected with BNP (2 µg/20 g mice) or saline every 2 days. C57BL/6 mice were sacrificed 1- and 14 days post-MI and Myh6 MerCreMer mice were sacrificed 14 days post-MI (Figure 1A). Neonatal C57BL/6 mice (3 days after birth) were injected ip with NaCl or BNP every two days (1 µg/2 g; Bachem; synthetic mouse BNP (1–45) peptide (catalog number H-7558)). Mice were sacrificed 11 days after birth (Figure 1B). Eight week old C57 BL/6 mice or Myh6 MerCreMer unmanipulated mice were injected ip with BNP (2 µg/20 g mice) or NaCl every two days (Figure 1C). Two weeks after the first injection, mice were sacrificed. To assess for the implication of the ERK signaling pathway in the BNP effect on CMs, PD0325901 (60 µg/20 g mice in 80 µL) was administered by gavage in adult unmanipulated mice 1 h before BNP injection (2 µg/20 g mice).
(§1) CM isolations were performed thanks to the Langendorff-Free method. […] Thereafter, the heart was removed from the chest and the left ventricle was perfused with enzymatic solution containing collagenase II (120 U/mL), collagenase IV (120 U/mL) (Worthington, Biochemical Corporation, USA) and protease XIV (0.05 mg/mL or 0.175 U/mL) (Sigma-Aldrich, Merck, Darmstadt, Germany). In each experiment, a full digestion of the heart was obtained. After digestion, cardiac cells were dissociated by gentle pipetting, filtered and collected after 25 min sedimentation. For infarcted hearts, the tissue was separated into the three zones (ZI, BZ and RZ). The three different areas were weighted before gentle pipetting.
(§2) Total proteins were extracted from CMs isolated from adult infarcted and unmanipulated neonatal and adult hearts. Proteins were transferred to nitrocellulose membranes (Biorad) before incubation with primary antibodies overnight at 4 °C. Secondary antibodies were added 1 h at RT in the dark (Supplementary File S1). The signal was detected and quantified with the Odyssey infrared imaging system (LI-COR. Biosciences, Bad Homburg, Germany). All results were normalized to the tubulin protein level or to the total protein level thanks to stainings with the Revert 700 Total protein Stain (LI-COR).

Troponin I+ GFP+ cells = experiment: Flow cytometry count of Troponin I+ GFP+ cells in Myh6 MerCreMer hearts; format: in vivo, mouse; conditions: unmanipulated adult Myh6 MerCreMer mice, tamoxifen then BNP, two weeks after first BNP injection, vs saline
Experimental: Before surgery and/or BNP treatments, adult Myh6 MerCreMer mice (6-week-old) were injected with Tamoxifen (Sigma, Merck, Darmstadt, Germany, T5648) at 40 mg/kg to activate the Cre recombinase. Tamoxifen was dissolved in ethanol to a concentration of 100 mg/mL and emulsified in peanut oil to a final concentration of 10 mg/mL. A total of 1 mg Tamoxifen/25 g body weight was injected intraperitoneally (i.p) to adult mice one time. Two weeks after tamoxifen injection, 90–95% of pre-existing CMs expressed the GFP protein [11].
BNP was injected into infarcted adults, and unmanipulated neonatal and adult mice. Directly after surgery, NaCl (saline) or BNP (1.3 µg/20 g in 20 µL) was injected into the left ventricle cavity. At 24 h after MI, mice were intraperitoneal (ip) injected with BNP (2 µg/20 g mice) or saline every 2 days. C57BL/6 mice were sacrificed 1- and 14 days post-MI and Myh6 MerCreMer mice were sacrificed 14 days post-MI (Figure 1A). […]
Adult CMs were isolated using enzymatic digestion (see above). […] Cells were analyzed with CytoFLEX (Beckmann Coulter) cytometer and data generated using FlowJo 10 software (10.7.1 version, Becton Dickinson and Compagny, Franklin Lakes, NJ, USA). […] Cells were stained with DAPI and only the DAPI negative cells (living cells) were analyzed.

cardiomyocytes (CMs) = experiment: Immunostaining of cell cycle markers (BrdU, Ki67, pH3, Aurkb) in CMs of BNP-treated hearts; format: in vivo, mouse
Experimental: For all experiments with adult mice, BrdU (1 mg/mL) was added into the drinking water during the entire period of the experiments. BrdU (40 µL/mice, 10 mg/mL) was ip injected in newborn mice on day 5 and 9 after birth.
Cells or OCT heart sections (5 µm-thick cryosections) were washed in PBS 1X and fixed in paraformaldehyde (2%) or formol (4%) for 10 min at RT. After 10 min of permeabilization (0.3% Triton x-100 in PBS) and one hour of blocking with normal serum, sections were probed with primary antibodies overnight at 4 °C (Supplementary File S1). The second day, the secondary antibody was added on cells or heart sections. Slides were mounted with Dabco (Sigma) and pictures were captured with Nikon Eclipse TS100 or 90i microscope. Images were processed with Adobe Photoshop CC2015.
For the detection of BrdU incorporation, heart slides were fixed 10 min in 2% PFA, DNA was denatured 1 h at RT in HCl 2N before neutralization in Na Borate 0.1 M pH = 8.5 during 2 × 5 min. Then, sections were probed with primary antibodies overnight at 4 °C (Supplementary File S1).

ERK = experiment: Western blot pERK/ERK in adult CMs stimulated in vitro; format: cell-based, mouse; conditions: adult CMs stimulated with BNP for 2–3 h in vitro, vs untreated
Experimental: as §1, §2

DAPI+ Troponin I+ cells = experiment: Flow cytometry of apoptotic CMs (DAPI+ Troponin I+ cells) after isolation; format: in vivo, mouse; conditions: CMs isolated from adult hearts injected during 2 weeks with BNP; saline 3.5 ± 0.5%
[1] = cited from earlier work
[2] = infarct and border area 10 days after MI, BNP vs saline
[3] = neonatal BNP-treated hearts vs saline
[4] = unmanipulated adult hearts, BNP vs saline

Brain Natriuretic Peptide (SQGSTLRVQQRPQNSKVTHISSCFGHKIDRIGSVSRLGCNALKLL; not fully specified; ends and bridges not checked; UniProt P40753 77-121, looked up) [BNP, synthetic mouse BNP (1–45) peptide (Bachem, catalog number H-7558)]
pPLB/PLB ratio change (phospholamban (PLB); CMs from remote zone (RZ) of infarcted hearts after BNP injections): −32% | pPLB/PLB ratio increase (phospholamban (PLB); CMs from unmanipulated adult hearts after BNP injections (2–3 h before CM isolation)): 1.5 × | pPLB/PLB ratio increase (phospholamban (PLB); CMs from unmanipulated neonatal hearts after BNP injections): 3.5 × | pPLB/PLB ratio increase (phospholamban (PLB); CMs isolated from border zone (BZ) of infarcted hearts after BNP injections): 2.7 × | increase of number of Troponin I+ GFP+ cells (Troponin I+ GFP+ cells): 28% | increase of percentage of BrdU+ GFP+ α actinin+ cells among GFP+ α actinin+ cells (cardiomyocytes (CMs); ZI+BZ of infarcted Myh6 MerCreMer mice injected with tamoxifen, BNP vs saline): 20% | increase of percentage of CMs expressing Aurkb (cardiomyocytes (CMs); [2]): 2.8 × | increase of percentage of CMs expressing Ki67 (cardiomyocytes (CMs); [2]): 50% | increase of percentage of CMs expressing pH3 (cardiomyocytes (CMs); [2]): 40% | increase of percentage of CMs incorporating BrdU (cardiomyocytes (CMs); [2]): 70% | number of Aurkb+ CMs undergoing cytokinesis or binucleation (cardiomyocytes (CMs); infarcted hearts, among Aurkb+ CMs, BNP vs saline): slightly increased | increase of number of Aurkb+ CMs undergoing cytokinesis or binucleation (cardiomyocytes (CMs); [3]): 1.4 fold | increase of number of CMs expressing Aurkb (cardiomyocytes (CMs); [3]): 47.5% | increase of number of CMs expressing Ki67 (cardiomyocytes (CMs); [3]): 15% | increase of number of CMs expressing pH3 (cardiomyocytes (CMs); [3]): 41% | increase of number of CMs incorporating BrdU (cardiomyocytes (CMs); [3]): 23% | increase of percentage of CMs expressing pH3 (cardiomyocytes (CMs); [4]): 94% | increase of percentage of CMs incorporating BrdU (cardiomyocytes (CMs); [4]): 67% | pERK/ERK ratio increase (ERK): 1.9 × | percentage of DAPI+ CMs (DAPI+ Troponin I+ cells): 4 ± 1% | half-life in the circulation ([1]; healthy persons): about 18 min | half-life in the plasma ([1]; patients with congestive heart failure): ~12 min
